Laboratory results as given in patent US20140235630A1, “COMPOSITIONS AND METHODS FOR THE TREATMENT OF PROLIFERATIVE DISEASES” (Beth Israel Deaconess Medical Center, Inc., priority 2011, published 2014).

Legend:
[1] = test system: patient-derived tumor with BRCA1 germline mutation 2080delA; assay: Patient-derived BRCA1 2080delA breast tumor xenograft growth; assay type: in vivo, human; details: untreated patient; Compound A 30 mg/kg/day, Compound B 50 mg/kg/day
Excerpt: FIGS. 6G and 6H are graphs showing the relative tumor volume (RTV) over time of tumors from breast cancer tissues from two patients, one with a 185delAG germline mutation (6G) and the other one with a 2080delA germline mutation (6H), propagated as subcutaneous implants in nude mice. Tumors were allowed to grow to a size of 5 mm when mice were randomized to treatments with either vehicle control (squares), Compound A (upside-down triangles), Compound B (triangles), or their combination (diamonds) (n=6 for each cohort, same dosing as in 6F).
All animal experiments were conducted in accordance with IACUC-approved protocols at Beth Israel Deaconess Medical Center, Boston, and at the University of Vall d'Hebron, Barcelona, Spain. […] The floxed or wild type status of Brca1, the presence of the MMTV-Cre transgene and the p53 heterozygosity were determined by PCR. […] When tumormetrics were performed, the length and width of the tumor was determined using calipers, and the tumor volume was determined (width^2×length/2). Tumor volume was used as a measure of growth and was recorded as ratio to tumor volume at diagnosis. Tumor doubling times were calculated using the functions of the best fit curves for all data points in each treatment modality. […]

[2] = test system: tumor tissue of MMTV-CreBRCA1^f/fp53+/− mice; assay: Immunohistochemistry / immunoblot of tumor tissue for γH2AX, Ki67, p-ERK; parameters: species or system mouse; details: in vivo treated tumors
Protocol: FIG. 4B are immunohistochemical images of pre-treatment biopsies and post-Compound A treatment tumor tissues with antibodies against p-ERK, Ki67, and γH2AX showing an in vivo increase of γH2AX-positive cells after treatment with Compound A and proliferative activity at the “pushing margin.” Tumor-bearing mice were subjected to a pre-treatment biopsy and then treated with Compound A at 50 mg/kg/day. FIG. 6E are immunoblots with antibodies against actin, p-AKT, and γH2AX of tumor tissues harvested from animals 3 hours after last treatment with Compound A (30 mg/kg/day), Compound B (50 mg/kg/day), or their combination. FIG. 8A are immunohistochemical images of tumor tissues obtained from tumor-bearing […] pre-treatment (left column of images), at Day 10 of treatment (middle column of images), and post-treatment tissue at the time of progression (right column of images) following treatment with a combination of Compound A and Compound B. FIG. 8B is a graph of Ki67 (right bar graph in each treatment group) and γH2AX (left bar graph in each treatment group) levels in tumor biopsies in pre-treatment, on-treatment, and post-treatment at the time of progression groups. Ki67 and γH2AX were scored by counting and averaging the number of positive nuclei per high-power field (HPF). […] The protein concentration was determined using Bradford reagent (Biorad). […]

Compound | sensitivity of patient-derived tumor (relative tumor volume) [1] | percentage of tumor cells that express γH2AX / γH2AX in tumor lysates [2]
Nc1cc(C(F)(F)F)c(-c2cc(N3CCOCC3)nc(N3CCOCC3)n2)cn1 [Compound A, 5-(2,6-dimorpholinopyrimidin-4-yl)-4-(trifluoromethyl)pyridin-2-amine] | exquisite sensitivity | substantial increase
O=C(c1cc(Cc2n[nH]c(=O)c3ccccc23)ccc1F)N1CCN(C(=O)C2CC2)CC1 [Compound B, 4-[[3-[4-(cyclopropanecarbonyl)piperazine-1-carbonyl]-4-fluorophenyl]methyl]-2H-phthalazin-1-one, reference compound] | exquisite sensitivity | –
